According to the RepoRT retention time repository (doi:10.1016/j.jchromb.2020.122105):

What was measured:
Conditions in all cases: stereoisomer not certain
[1] = HILIC, Merck SeQuant ZIC-HILIC, 150 × 2.1 mm, 5 µm, 0.75 mL/min, estimated dead time 0.44 min; A: water + 0.1% acetic acid + 10 mM ammonium acetate, pH 4; B: 5% water + 95% acetonitrile + 0.1% acetic acid + 10 mM ammonium acetate, pH 4; gradient (min/%B) 0/95 5/95 20/57 25/57 30/95 40/95
[2] = RP, Waters CORTECS T3, 100 × 2.1 mm, 2.7 µm, 0.2 mL/min, estimated dead time 1.1 min; A: water + 0.1% formic acid, pH 3; B: methanol + 0.1% formic acid, pH 3; gradient (min/%B) 0/5 5/5 25/95 25.1/100 35/100 35.1/5 45/5
[3] = RP, Waters CORTECS T3, 100 × 2.1 mm, 2.7 µm, 0.2 mL/min, estimated dead time 1.1 min; A: water + 0.045% formic acid + 0.11% ammonium hydroxide, pH 7; B: methanol; gradient (min/%B) 0/5 5/5 25/95 25.1/100 35/100 35.1/5 45/5
[4] = RP, Thermo Scientific Hypercarb, 150 × 2.1 mm, 5 µm, 0.1 mL/min, estimated dead time 3.3 min; A: water + 0.1% formic acid, pH 3; B: methanol + 0.1% formic acid, pH 3; gradient (min/%B) 0/5 5/5 20/100 35/100 35.1/5 45/5
[5] = RP, Waters ACQUITY UPLC BEH C18, 100 × 2.1 mm, 1.7 µm, 0.1 mL/min, estimated dead time 2.2 min; A: water + 0.045% formic acid + 0.11% ammonium hydroxide, pH 7; B: methanol; gradient (min/%B) 0/5 5/5 25/95 25.1/100 35/100 35.1/5 45/5
[6] = RP, Waters CORTECS T3, 100 × 2.1 mm, 2.7 µm, 0.3 mL/min, estimated dead time 0.73 min; A: water + 0.1% formic acid, pH 3; B: methanol + 0.1% formic acid, pH 3; gradient (min/%B) 0/0 1/0 6/5 30/100 35/100 35.1/0 40/0
[7] = RP, Waters ACQUITY UPLC BEH C18, 100 × 2.1 mm, 1.7 µm, 0.2 mL/min, estimated dead time 1.1 min; A: water + 0.025% formic acid + 20 mM ammonium acetate + 0.055% ammonium hydroxide, pH 7; B: methanol; gradient (min/%B) 0/5 5/5 25/100 30/100 30.1/5 35/5
[8] = RP, Waters CORTECS T3, 100 × 2.1 mm, 2.7 µm, 0.25 mL/min, estimated dead time 0.88 min; A: water + 0.1% formic acid, pH 3; B: methanol + 0.1% formic acid, pH 3; gradient (min/%B) 0/0 1/0 6/5 30/100 35/100 35.1/0 40/0
[9] = RP, Waters ACQUITY UPLC BEH C18, 100 × 2.1 mm, 1.7 µm, 0.1 mL/min, estimated dead time 2.2 min; A: water + 0.1% formic acid, pH 3; B: methanol + 0.1% formic acid, pH 3; gradient (min/%B) 0/5 5/5 25/100 30/100 30.1/5 35/5
[10] = RP, Waters CORTECS T3, 100 × 2.1 mm, 2.7 µm, 0.3 mL/min, estimated dead time 0.73 min; A: water + 0.1% formic acid, pH 3; B: methanol + 0.1% formic acid, pH 3; gradient (min/%B) 0/0 5/0 25/100 30/100 30.1/0 35/0
[11] = RP, Waters CORTECS T3, 100 × 2.1 mm, 2.7 µm, 0.15 mL/min, estimated dead time 1.5 min; A: water + 0.1% formic acid, pH 3; B: methanol + 0.1% formic acid, pH 3; gradient (min/%B) 0/0 1/0 6/5 30/100 35/100 35.1/0 40/0
[12] = RP, Waters CORTECS T3, 100 × 2.1 mm, 2.7 µm, 0.3 mL/min, estimated dead time 0.73 min; A: water + 0.1% formic acid, pH 3; B: methanol + 0.1% formic acid, pH 3; gradient (min/%B) 0/5 5/5 25/100 30/100 30.1/5 35/5
[13] = RP, Waters CORTECS T3, 100 × 2.1 mm, 2.7 µm, 0.3 mL/min, estimated dead time 0.73 min; A: water + 0.1% formic acid, pH 3; B: methanol + 0.1% formic acid, pH 3; gradient (min/%B) 0/5 5/5 25/95 25.1/100 35/100 35.1/5 45/5
[14] = RP, Waters CORTECS T3, 100 × 2.1 mm, 2.7 µm, 0.2 mL/min, estimated dead time 1.1 min; A: water + 0.1% formic acid, pH 3; B: methanol + 0.1% formic acid, pH 3; gradient (min/%B) 0/0 1/0 6/5 30/100 35/100 35.1/0 40/0

| Structure (SMILES) | LC retention time [4] | LC retention time [5] | LC retention time [7] | other results |
| --- | --- | --- | --- | --- |
| O=c1[nH]c(=O)c2ncn(C3OC(CO)C(O)C3O)c2[nH]1 (centres undefined) [XANTHOSINE] |  |  |  | LC retention time [1]: 11.6 min; LC retention time [2]: 11.9 min |
| N[C@@H](Cc1ccc(O)cc1)C(=O)O [L-TYROSINE] | 24.8 min | 10.2 min |  | LC retention time [3]: 5.83 min |
| CS(=N)(=O)CCC(N)C(=O)O [L-METHIONINE SULFOXIMINE] | 4.77 min |  |  |  |
| NC(N)=NCC(=O)O [GUANIDINOACETATE] | 5.04 min |  |  |  |
| Nc1ccnc(=O)[nH]1 [CYTOSINE] | 13.9 min |  | 1.44 min | LC retention time [6]: 0.9 min; LC retention time [8]: 1.06 min |
| Nc1c(O)cccc1C(=O)CC(N)C(=O)O (centres undefined) [3-HYDROXYKYNURENINE] |  |  |  | LC retention time [9]: 2.83 min |
| C[Se]CCC(N)C(=O)O (centres undefined) [SELENOMETHIONINE] |  |  |  | LC retention time [9]: 4.52 min |
| CCCCCCCCCCCCCCCC(=O)O [PALMITATE] |  | 36.8 min |  | LC retention time [2]: 33.8 min |
| C[N+](C)(C)CCO [CHOLINE] |  |  | 1.35 min |  |
| CN=C(N)N [METHYLGUANIDINE] | 4.05 min |  | 1.39 min | LC retention time [8]: 1.06 min |
| COc1cc(CCN)ccc1O [3-METHOXYTYRAMINE] | 20.5 min | 9.22 min |  | LC retention time [3]: 4.87 min |
| C[n+]1cccc(C(N)=O)c1 [1-METHYLNICOTINAMIDE] | 4.94 min |  | 1.35 min |  |
| OCC(O)c1ccc(O)c(O)c1 (centres undefined) [3,4-DIHYDROXYPHENYL GLYCOL] |  |  |  | LC retention time [1]: 4.12 min |
| Cn1cncc1CCN [3-METHYLHISTAMINE] | 4.64 min | 3.44 min | 1.81 min | LC retention time [3]: 1.73 min |
| Cc1ncc(C[n+]2csc(CCOP(=O)(O)O)c2C)c(N)n1 [THIAMINE MONOPHOSPHATE] | 18 min | 3.87 min | 1.42 min | LC retention time [10]: 0.89 min; LC retention time [11]: 1.78 min |
| NC(=O)c1ccc[n+](C2OC(COP(=O)([O-])O)C(O)C2O)c1 (centres undefined) [NICOTINAMIDE MONONUCLEOTIDE] | 26.7 min |  |  | LC retention time [9]: 2.69 min |
| NCCCNCCCN [BIS(3-AMINOPROPYL)AMINE] | 41 min |  |  |  |
| CCCCCCCCCCCCCC(=O)OCC(O)CO (racemic) [RAC-GLYCEROL 1-MYRISTATE] |  | 29.1 min |  | LC retention time [9]: 28.2 min; LC retention time [3]: 25.4 min |
| CC(=O)NC1C(O)CC(O)(C(=O)O)OC1C(O)C(O)CO (centres undefined) [N-ACETYLNEURAMINATE] |  |  |  | LC retention time [1]: 12.9 min |
| CCCCCCCCC=CCCCCCCCC(=O)NC(COP(=O)([O-])OCC[N+](C)(C)C)C(O)C=CCCCCCCCCCCCCC (centres undefined) [SPHINGOMYELIN (d36:2)] |  | 37.5 min |  | LC retention time [3]: 28.7 min |
| N[C@@H](Cc1c[nH]c2ccc(O)cc12)C(=O)O [5-HYDROXY-L-TRYPTOPHAN] |  |  |  | LC retention time [12]: 2.7 min |
| CCCCCCC=CCCCCCCCC(=O)O [PALMITOLEIC ACID] |  | 29.4 min |  |  |
| O=C1CCNC(=O)N1 [5,6-DIHYDROURACIL] |  |  |  | LC retention time [9]: 2.76 min |
| N[C@@H](CCOC(=O)CCC(=O)O)C(=O)O [O-SUCCINYL-L-HOMOSERINE] | 16.2 min |  |  | LC retention time [13]: 0.9 min; LC retention time [9]: 2.74 min; LC retention time [6]: 0.92 min; LC retention time [10]: 0.93 min; LC retention time [14]: 1.34 min; LC retention time [11]: 1.83 min; LC retention time [8]: 1.09 min |
| CC(=O)NCCCCN [N-ACETYLPUTRESCINE] |  |  | 1.39 min | LC retention time [9]: 2.71 min; LC retention time [11]: 1.8 min |
| NCCc1ccccc1 [PHENETHYLAMINE] |  | 20.4 min |  |  |

| Structure (SMILES) | LC retention time [4] | LC retention time [5] | LC retention time [7] | other results |
| --- | --- | --- | --- | --- |
| O=C(O)C(O)c1ccc(O)c(O)c1 (centres undefined) [DIHYDROXYMANDELIC ACID] |  |  |  | LC retention time [1]: 4.4 min |
| c1ccc2ncccc2c1 [QUINOLINE] | 4.84 min | 16.1 min |  | LC retention time [3]: 11.7 min |
| CC(C)=CCCC(C)=CCCC(C)=CCCC(C)=CCC1=C(C)C(=O)c2ccccc2C1=O [MENAQUINONE] |  | 34.6 min |  |  |
| C=C1CCC(O)CC1=CC=C1CCCC2(C)C1CCC2C(C)C=CC(C)C(C)C (centres undefined) [VITAMIN D2] |  | 33.6 min |  |  |
| NCCCCNCCCN [SPERMIDINE] | 41 min |  |  |  |
| NC(N)=NCCCC(=O)O [4-GUANIDINOBUTANOATE] | 13 min |  | 1.39 min | LC retention time [9]: 2.71 min; LC retention time [6]: 0.9 min; LC retention time [10]: 0.91 min; LC retention time [11]: 1.8 min; LC retention time [8]: 1.06 min |
| CN1CC(=O)NC1=N [CREATININE] | 4.94 min |  | 1.39 min | LC retention time [8]: 1.06 min |
| NC(CCS)C(=O)O (centres undefined) [HOMOCYSTEINE] | 14 min |  |  |  |
| COC1=C(OC)C(=O)C(CC=C(C)CCC=C(C)CCC=C(C)CCC=C(C)CCC=C(C)CCC=C(C)CCC=C(C)CCC=C(C)CCC=C(C)CCC=C(C)C)=C(C)C1=O [COENZYME Q10] |  | 37.8 min |  |  |
| O=C(O)CNC(=O)c1ccccc1 [HIPPURATE] |  |  |  | LC retention time [9]: 14.1 min |
| NC(CCCC(N)C(=O)O)C(=O)O (centres undefined) [LL-2,6-DIAMINOHEPTANEDIOATE] | 4.49 min |  |  | LC retention time [2]: 2.41 min |
| NCCc1cnc[nH]1 [HISTAMINE] | 4.61 min | 3.13 min | 1.44 min | LC retention time [3]: 1.54 min |
| NCCCCN=C(N)N [AGMATINE] |  | 3.67 min | 1.44 min | LC retention time [3]: 1.58 min |
| Cn1cncc1CC(N)C(=O)O [N(PAI)-METHYL-L-HISTIDINE] | 4.77 min |  | 1.88 min |  |
| O=C(O)CCCC(=O)C(=O)O [2-OXOADIPATE] |  |  |  | LC retention time [1]: 12.9 min |
| NC(N)=NCCC[C@H](N)C(=O)O [L-ARGININE] | 4.77 min |  |  |  |
| NC(=O)CCCCC1CCSS1 (centres undefined) [LIPOAMIDE] |  | 20 min |  | LC retention time [3]: 16 min |
| N[C@@H](CSSC[C@H](N)C(=O)O)C(=O)O [L-CYSTINE] | 4.99 min |  |  |  |
| N[C@@H](CCSC[C@H](N)C(=O)O)C(=O)O [L-CYSTATHIONINE] | 4.86 min |  |  |  |
| CN(CC(=O)O)C(=N)N [CREATINE] |  |  | 1.35 min |  |
| N[C@@H](CSCC(=O)O)C(=O)O [S-CARBOXYMETHYL-L-CYSTEINE] | 14.8 min |  |  |  |
| CC(C)=CCCC(C)C1CCC2(C)C3=C(CCC12C)C1(C)CCC(O)C(C)(C)C1CC3 (centres undefined) [LANOSTEROL] |  |  | 26.4 min |  |
| NC1(C(=O)O)CC1 [1-AMINOCYCLOPROPANE-1-CARBOXYLATE] | 4.48 min |  |  |  |
| OCCNCCO [DIETHANOLAMINE] |  |  | 1.35 min |  |
| Cc1ncc(C[n+]2csc(CCO)c2C)c(N)n1 [THIAMINE] | 19.1 min |  | 3.78 min | LC retention time [10]: 0.89 min; LC retention time [11]: 1.78 min |
